Experiment in all cases: cells
In test [1] the test system is AsPC-1. Also on record: ATPlite luminescence viability of PDAC cell lines, 11-dose single-agent curves, 4-parameter fit. Conditions: Homo sapiens, ASPC1, 72 h, read-out: EC50 [nM]. In a few lines:
(§1)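 cells (1000 to 5000 per well) seeded 24 h before drug addition in a combination screen at 0.2% final DMSO. Controls were drug-free wells (negative) and 5 µM staurosporine (positive).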

The test system of test [2] is BxPC-3. Also on record: ATPlite luminescence viability of PDAC cell lines, 11-dose single-agent curves, 4-parameter fit. The conditions noted are these: Homo sapiens, BXPC-3, 72 h, read-out: EC50 [nM]. In a few lines: as §1
Test [3] relates to Colo-357. Also on record: ATPlite luminescence viability of PDAC cell lines, 11-dose single-agent curves, 4-parameter fit. Conditions: Homo sapiens, COLO357, 72 h, read-out: EC50 [nM]. The gist of the method: as §1
Test [4] has as its system FAMPAC. Also on record: ATPlite luminescence viability of PDAC cell lines, 11-dose single-agent curves, 4-parameter fit. The conditions noted are these: 72 h, read-out: EC50 [nM]. In a few lines: as §1
Test [5] concerns HPDE. Also on record: ATPlite luminescence viability of PDAC cell lines, 11-dose single-agent curves, 4-parameter fit. The conditions noted are these: HPDE, 72 h, read-out: EC50 [nM]. In a few lines:
as §1

The test system of test [6] is MiaPaCa-2. Set-up: ATPlite luminescence viability of PDAC cell lines, 11-dose single-agent curves, 4-parameter fit. The conditions noted are these: Homo sapiens, MIA PaCa-2, 72 h, read-out: EC50 [nM]. In a few lines: as §1
Test [7] relates to PSN-1. Set-up: ATPlite luminescence viability of PDAC cell lines, 11-dose single-agent curves, 4-parameter fit. The conditions noted are these: Homo sapiens, PSN1, 72 h, read-out: EC50 [nM]. The gist of the method:
as §1

Test [8] deals with PaTu-8988-T. Set-up: ATPlite luminescence viability of PDAC cell lines, 11-dose single-agent curves, 4-parameter fit. Conditions: Homo sapiens, PaTu 8988t, 72 h, read-out: EC50 [nM]. The gist of the method:
as §1

The test system of test [9] is Suit2-07. Set-up: ATPlite luminescence viability of PDAC cell lines, 11-dose single-agent curves, 4-parameter fit. Conditions: 72 h, read-out: EC50 [nM]. In a few lines: as §1
Test [10] has as its system Capan-1. Set-up: Viability of PDAC cell lines, ATPlite luminescence, 11-dose single-agent curve fit. The conditions noted are these: Homo sapiens, CAPAN-1, 72 h, read-out: EC50 [nM]. In a few lines:
(§2)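 cells (1000 to 5000 per well) seeded 24 h before drug addition in a screen at 0.2% final DMSO. Controls were drug-free wells (negative) and 5 µM staurosporine (positive).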

In test [11] the test system is Dan-G. Also on record: Viability of PDAC cell lines, ATPlite luminescence, 11-dose single-agent curve fit. Conditions: 72 h, read-out: EC50 [nM]. In a few lines:
as §2

The subject of test [12] is PANC-1. Set-up: Viability of PDAC cell lines, ATPlite luminescence, 11-dose single-agent curve fit. The conditions noted are these: Homo sapiens, PANC-1, 72 h, read-out: EC50 [nM]. The gist of the method:
as §2

Test [13] has as its system Capan-1. Set-up: ATPlite luminescence viability of PDAC cell lines, 11-dose single-agent curves, 4-parameter fit. The conditions noted are these: Homo sapiens, CAPAN-1, 72 h, read-out: EC50 [nM]. The gist of the method: as §1
Test [14] relates to Dan-G. Also on record: ATPlite luminescence viability of PDAC cell lines, 11-dose single-agent curves, 4-parameter fit. Conditions: 72 h, read-out: EC50 [nM]. In a few lines:
as §1

Test [15] has as its system AsPC-1. Set-up: Viability of PDAC cell lines, ATPlite luminescence, 11-dose single-agent curve fit. The conditions noted are these: Homo sapiens, ASPC1, 72 h, read-out: EC50 [nM]. In a few lines:
as §2

In test [16] the test system is BxPC-3. Also on record: Viability of PDAC cell lines, ATPlite luminescence, 11-dose single-agent curve fit. The conditions noted are these: Homo sapiens, BXPC-3, 72 h, read-out: EC50 [nM]. In a few lines:
as §2

Test [17] concerns HPDE. Also on record: Viability of PDAC cell lines, ATPlite luminescence, 11-dose single-agent curve fit. The conditions noted are these: HPDE, 72 h, read-out: EC50 [nM]. The gist of the method:
as §2

Test [18] relates to HuP-T4. Also on record: Viability of PDAC cell lines, ATPlite luminescence, 11-dose single-agent curve fit. The conditions noted are these: Homo sapiens, HuP-T4, 72 h, read-out: EC50 [nM]. In a few lines: as §2
Test [19] relates to PaTu-8988-T. Also on record: Viability of PDAC cell lines, ATPlite luminescence, 11-dose single-agent curve fit. The conditions noted are these: Homo sapiens, PaTu 8988t, 72 h, read-out: EC50 [nM]. In a few lines:
as §2

Test [20] relates to Suit2-07. Also on record: Viability of PDAC cell lines, ATPlite luminescence, 11-dose single-agent curve fit. The conditions noted are these: 72 h, read-out: EC50 [nM]. The gist of the method:
as §2

Test [21] concerns FAMPAC. Set-up: Viability of PDAC cell lines, ATPlite luminescence, 11-dose single-agent curve fit. Conditions: 72 h, read-out: EC50 [nM]. The gist of the method: as §2
The subject of test [22] is MiaPaCa-2. Set-up: Viability of PDAC cell lines, ATPlite luminescence, 11-dose single-agent curve fit. The conditions noted are these: Homo sapiens, MIA PaCa-2, 72 h, read-out: EC50 [nM]. In a few lines:
as §2

Test [23] deals with PSN-1. Set-up: Viability of PDAC cell lines, ATPlite luminescence, 11-dose single-agent curve fit. The conditions noted are these: Homo sapiens, PSN1, 72 h, read-out: EC50 [nM]. In a few lines:
as §2

Test [24] has as its system Colo-357. Also on record: Viability of PDAC cell lines, ATPlite luminescence, 11-dose single-agent curve fit. Conditions: Homo sapiens, COLO357, 72 h, read-out: EC50 [nM]. In a few lines:
as §2

As usually defined, the EC50 is the concentration giving half of the maximal effect.

Where two headings read alike, the source gives them in different places. Some results are limits rather than exact numbers.

With `CN(C)CCCOc1ccc(-c2ccc3ncc4c(c3c2)n(C2CCOCC2)c(=O)n4C)cn1` [AZD-0156], the EC50 was over 10000 nM in [1]; 5990 nM in test [2]; 6410 nM in test [3]; 1890 nM in [4]; 10400 nM in [5]; 1010 nM in [6]. For the same molecule, the EC50 is 3260 nM in test [7]; 606 nM in test [8]; 1960 nM in test [9]; over 10000 nM in test [10]; 4160 nM in [11]; over 10000 nM in test [12].
On to `NC(=O)c1cccc2cn(-c3ccc([C@@H]4CCCNC4)cc3)nc12` [Niraparib], for which the EC50 in test [13] came to 3180 nM; in test [3], 1160 nM; in test [14] it was 1710 nM; in test [4], 3370 nM; in [6] it was 2020 nM; in test [7], 1740 nM. Moreover, the EC50 is 1010 nM in test [9]; over 10000 nM in [15]; 1010 nM in test [16]; 4720 nM in [17]; 10.5 nM in [18]; 3580 nM in test [12]. Further, the EC50 in test [19] was 4150 nM.
In the case of `COc1cc(Nc2ncc3c(n2)-c2ccc(Cl)cc2C(c2c(F)cccc2OC)=NC3)ccc1C(=O)O` [Alisertib], the EC50 in [2] was found to be 848 nM; in test [13], 427 nM; in [3], 291 nM; in test [14] it was 914 nM; in test [4], 68.6 nM; in [6], 87 nM. Moreover, the concentration giving a half-maximal response (EC50) in [7] worked out at 846 nM; in test [15], 405 nM; in [17], 2700 nM; in test [18] it was 64.4 nM; in test [12], 95.6 nM; in test [19], 274 nM. Also, in test [20], the EC50 is 272 nM.
`O=C(Nc1ccc(OC(F)(F)Cl)cc1)c1cnc(N2CC[C@@H](O)C2)c(-c2cc[nH]n2)c1` [Asciminib]: the EC50 is 3820 nM in test [13]; over 10000 nM in test [3]; 1470 nM in test [15]; 794 nM in test [16]; 7610 nM in test [11]; over 10000 nM in test [21]. The EC50 turned out to be 4830 nM in test [17]; 3860 nM in [18]; 2770 nM in test [22]; 4520 nM in test [12]; 1730 nM in test [23]; 1350 nM in [19]. Besides, in test [20], the EC50 is 3.54 nM.
Regarding `COc1cc2/c(=N/c3ccc(Br)cc3F)nc[nH]c2cc1OCC1CCN(C)CC1` [Vandetanib], the EC50 in test [1] was over 10000 nM; in test [2], 3600 nM; in [3], 6050 nM; in test [14] it was over 10000 nM; in test [4] it was over 10000 nM; in test [5] it was 1520 nM. Besides, the EC50 in [6] is over 10000 nM; in [8] it was over 10000 nM; in [9], over 10000 nM; in test [10], over 10000 nM; in test [18] it was 23.9 nM; in test [12], 3860 nM. In test [23], the EC50 was over 10000 nM.
On to `O=C1CCc2c(Oc3ccc4c(c3)[C@@H]3[C@H](O4)[C@H]3c3nc4cc(C(F)(F)F)ccc4[nH]3)ccnc2N1` [Lifirafenib], for which the EC50 in [1] turned out to be 966 nM; in test [2], 3060 nM; in test [14] it was 2000 nM; in test [4], 2510 nM; in test [5], 1980 nM; in test [6] it was 2650 nM. Further, the EC50 in test [7] was 696 nM; in [8], 2540 nM; in test [9], over 10000 nM; in [10], 9370 nM; in [24] it was 3500 nM; in test [18], 4500 nM. In addition, the EC50 in test [12] is over 10000 nM.

(Values after paper PMC11876601 (Molecular Systems Biology, 2025).)
